ChEMBL document CHEMBL3612058, “Synthesis and biological evaluation of a new series of 2-amino-3-aroyl thiophene derivatives as agonist allosteric modulators of the A1 adenosine receptor. A position-dependent effect study” (Eur J Med Chem, 2015)
Calls of active or inactive are those of the source. The calls are words filed in the database; no cut-off is given here.

Experiments:
[1] = molecular target: T1, Adenosine receptor A1 (Homo sapiens) (UniProt P30542); test: Increase of [3H]-NECA affinity to human adenosine A1 receptor expressed in CHO cells at 1 uM after 45 mins by scintillation spectrometry analysis relative to control; format: cell-based
T1 sequence (whole entry): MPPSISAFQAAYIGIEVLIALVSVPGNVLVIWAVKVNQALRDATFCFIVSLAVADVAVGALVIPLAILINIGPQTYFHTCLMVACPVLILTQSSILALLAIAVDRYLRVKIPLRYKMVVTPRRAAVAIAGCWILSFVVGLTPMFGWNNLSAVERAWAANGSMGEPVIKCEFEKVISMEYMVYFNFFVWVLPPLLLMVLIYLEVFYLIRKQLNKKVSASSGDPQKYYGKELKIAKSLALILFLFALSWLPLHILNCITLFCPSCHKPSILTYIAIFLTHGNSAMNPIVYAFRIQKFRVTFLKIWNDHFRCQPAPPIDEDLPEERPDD

[2] = molecular target: T1, Adenosine receptor A1 (Homo sapiens); test: Binding affinity to human adenosine A1 receptor expressed in CHO cells assessed as fold Bmax shift of [3H]-CCPA at 10 uM after 90 mins by [3H]-CCPA binding assay relative to control; format: cell-based
[3] = molecular target: T1, Adenosine receptor A1 (Homo sapiens); test: Binding affinity to human adenosine A1 receptor expressed in CHO cells assessed as fold Ki shift of CCPA at 10 uM after 90 mins by [3H]-CCPA displacement assay relative to control; format: cell-based
[4] = molecular target: T2, Adenosine receptor A3 (Homo sapiens) (UniProt P0DMS8); test: Displacement of [3H]-MRE-3008-F20 from human adenosine A3 receptor expressed in CHO cells at 10 uM after 120 mins by scintillation counting; format: cell-based
T2 sequence (whole entry): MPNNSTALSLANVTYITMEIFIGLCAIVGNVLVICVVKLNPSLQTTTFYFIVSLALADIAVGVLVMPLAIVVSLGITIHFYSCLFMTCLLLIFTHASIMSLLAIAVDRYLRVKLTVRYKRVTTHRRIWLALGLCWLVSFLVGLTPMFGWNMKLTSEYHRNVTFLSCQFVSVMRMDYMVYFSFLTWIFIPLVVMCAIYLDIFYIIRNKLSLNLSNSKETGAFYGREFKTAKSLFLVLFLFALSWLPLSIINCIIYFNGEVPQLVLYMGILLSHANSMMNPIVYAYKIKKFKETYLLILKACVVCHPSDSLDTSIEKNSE

[5] = molecular target: T1, Adenosine receptor A1 (Homo sapiens); test: Effect on dissociation binding rate constant of [3H]-NECA to human adenosine A1 receptor expressed in CHO cells at 1 uM after 45 mins by scintillation spectrometry analysis relative to control; format: cell-based
[6] = molecular target: T1, Adenosine receptor A1 (Homo sapiens); test: Positive allosteric enhancement of human cloned adenosine A1 receptor expressed in CHO cells assessed as inhibition of forskolin-induced cAMP accumulation at 100 nM using [3H]-cAMP by scintillation counting relative to control in presence of 1 pM of CCPA; format: functional, cell-based
[7] = Displacement of [3H]-ZM241385 from human adenosine A2 receptor expressed in CHO cells at 10 uM after 120 mins by scintillation counting; format: cell-based
[8] = molecular target: T1, Adenosine receptor A1 (Homo sapiens); test: Displacement of [3H]DPCPX from human adenosine A1 receptor expressed in CHO cells at 10 uM after 120 mins by scintillation counting; format: cell-based
[9] = molecular target: T1, Adenosine receptor A1 (Homo sapiens); test: Effect on association binding rate constant of [3H]-NECA to human adenosine A1 receptor expressed in CHO cells at 1 uM after 45 mins by scintillation spectrometry analysis; format: cell-based
[10] = molecular target: T1, Adenosine receptor A1 (Homo sapiens); test: Positive allosteric enhancement of human cloned adenosine A1 receptor expressed in CHO cells assessed as inhibition of forskolin-induced cAMP accumulation at 10 uM using [3H]-cAMP by scintillation counting relative to control; format: functional, cell-based
[11] = molecular target: T1, Adenosine receptor A1 (Homo sapiens); test: Ratio of PD81723 to compound for positive allosteric enhancement of human cloned adenosine A1 receptor expressed in CHO cells assessed as inhibition of forskolin-induced cAMP accumulation at 10 uM using [3H]-cAMP by scintillation counting; format: functional, cell-based
[12] = system: Mus musculus; test: Antinociceptive effect in CD1 mouse assessed as inhibition of formalin-induced pain behavior in paw at 3 mg/kg, ip administered 15 mins before formalin challenge measured up to 45 mins relative to control; format: functional
[13] = system: Mus musculus; test: Antinociceptive effect in CD1 mouse assessed as inhibition of formalin-induced pain behavior in paw at 0.3 mg/kg, ip administered 15 mins before formalin challenge measured up to 45 mins relative to control; format: functional

Activity [1]	fold change (FC) [2]	fold change (FC) [3]	inhibition [4]	Activity [5]	inhibition [6]	inhibition [8]	Activity [9]	inhibition [10]	Ratio [11]	fold change (FC) [1]	fold change (FC) [5]	Compound	inhibition [7]	inhibition in vivo at 3 mg/kg [12]	inhibition in vivo at 0.3 mg/kg [13]
inactive	1.3	1.4	< 10%	inactive	21%	< 10%	inactive					Cc1sc(N)c(C(=O)c2cccc(C(F)(F)F)c2)c1C	< 10%		
	9.1	8	< 10%		69%	< 10%		68%	3			CCOc1ccc(Cc2c(-c3ccccc3)sc(N)c2C(=O)c2ccc(Cl)cc2)cc1	< 10%		
	6.6	4.6	< 10%		61%	< 10%		59%	3			COc1c(C)cc(Cc2c(-c3ccccc3)sc(N)c2C(=O)c2ccc(Cl)cc2)cc1C	< 10%		
	4.9	4.2	< 10%		50%	< 10%		51%	3			Nc1sc(-c2ccccc2)c(Cc2ccccc2)c1C(=O)c1ccc(Cl)cc1	< 10%		
	5.3	5.2	< 10%		55%	< 10%		52%	3			CSc1ccc(Cc2c(-c3ccc(F)cc3)sc(N)c2C(=O)c2ccc(Cl)cc2)cc1	< 10%		
	7.3	6.9	< 10%		63%	< 10%		66%	3			COc1cccc(Cc2c(-c3ccccc3)sc(N)c2C(=O)c2ccc(Cl)cc2)c1	< 10%		
	4.9	3.9	< 10%		49%	< 10%		50%	3			Nc1sc(-c2ccc(F)cc2)c(Cc2ccccc2)c1C(=O)c1ccc(Cl)cc1	< 10%		
	11	11.7	< 10%		84%	< 10%	inactive	81%	3	2.3	2.5	Nc1sc(-c2ccc(Cl)cc2)c(Cc2ccc(Cl)cc2)c1C(=O)c1ccc(Cl)cc1	< 10%	82%	49%
	5	3.9	< 10%		48%	< 10%		49%	3			COc1ccc(-c2sc(N)c(C(=O)c3ccc(Cl)cc3)c2Cc2ccc(Cl)cc2)cc1	< 10%		
	6.5	6.1	< 10%		62%	< 10%		62%	3			COc1ccc(-c2sc(N)c(C(=O)c3ccc(Cl)cc3)c2Cc2ccc(SC)cc2)cc1	< 10%		
	4.8	3.7	< 10%		41%	< 10%		45%	3			Nc1sc(-c2ccc(F)cc2)c(Cc2ccc(F)cc2)c1C(=O)c1ccc(Cl)cc1	< 10%		
	8.1	6.1	< 10%		66%	< 10%		66%	3			COc1ccc(Cc2c(-c3ccccc3)sc(N)c2C(=O)c2ccc(Cl)cc2)cc1C	< 10%		
	5.6	5.1	< 10%		58%	< 10%		56%	3			Cc1ccc(Cc2c(-c3ccccc3)sc(N)c2C(=O)c2ccc(Cl)cc2)cc1	< 10%		
	9.4	8.9	< 10%		74%	< 10%		71%	3			COc1ccc(Cc2c(-c3ccccc3)sc(N)c2C(=O)c2ccc(Cl)cc2)cc1	< 10%		
	6.5	5.6	< 10%		62%	< 10%		59%	3			Cc1ccc(Cc2c(-c3ccc(F)cc3)sc(N)c2C(=O)c2ccc(Cl)cc2)cc1	< 10%		
